Experimental data: US12558362B2, “Use of cannabidiol in the treatment of seizures associated with rett syndrome” (JAZZ PHARMACEUTICALS RESEARCH UK LIMITED, priority 2020, dated 2026)
“Also recorded” adds a separate entry of the source.

Assays:
[1] = test system: patients diagnosed with Rett syndrome; experiment: Open label, expanded-access program of botanically derived purified CBD: seizure frequency recorded in caregiver diaries relative to baseline; format: in vivo, human; set-up: Reduction in tonic seizures over the treatment period / Reduction in focal seizures with impairment over the treatment period / Reduction in absence seizures over the treatment period: concentration or dose not given beside the values; Seizure frequency, tonic / Seizure frequency, tonic-clonic / Seizure frequency, absence / Seizure frequency, focal with impairment: unit not given here; conditions: for Seizure frequency, focal with impairment: baseline 3.2
Method: Subjects were required to be on one or more AEDs at stable doses for a minimum of two weeks prior to baseline and to have stable vagus nerve stimulation (VNS) settings and ketogenic diet ratios for a minimum of four weeks prior to baseline.
Patients were administered botanically derived purified CBD in a 100 mg/mL sesame oil-based solution which was titrated to an initial dose of between 5 and 25 milligrams per kilogram per day (mg/kg/day) in two divided doses. Doses were then increased weekly by 5 mg/kg/day to a goal of 25 mg/kg/day where required.
A maximum dose of 50 mg/kg/day could be utilised for patients who were tolerating the medication but had not achieved seizure control; these patients had further weekly titration by 5 mg/kg/day.
There were three patients in this study, and each received CBD for various durations of time. Modifications were made to concomitant AEDs as per clinical indication.
Seizure frequency, intensity, and duration were recorded by caregivers in a diary during a baseline period of at least 28 days. Changes in seizure frequency relative to baseline were calculated after at least 2 weeks and at defined timepoints of treatment.
Patients may be defined as responders if they had more than 50% reduction in seizure frequency compared to baseline. The percent change in seizure frequency was calculated as follows: […]
The percent change of seizure frequency may be calculated for any time interval where seizure number has been recorded. For the purpose of this example the percent change of seizure frequency for the end of the treatment period was calculated as follows:
[formula] Results Patient Description

[2] = test system: patients with Dravet and Lennox-Gastaut syndrome; conditions: cited from earlier work
[3] = test system: mouse model of Rett syndrome; conditions: cited from earlier work
[4] = Patient 2, treated for 84 weeks
[5] = printed Patient 2 (follows Table 2C of Patient 3), treated for 36 weeks

Structure (SMILES): C=C(C)[C@@H]1CCC(C)=C[C@H]1c1c(O)cc(CCCCC)cc1O [CBD, cannabidiol]
- Seizure frequency, tonic-clonic ([1]; Patient 1, 2 weeks, CBD 5.0 mg/kg/day, baseline 10.0): 26.0
- Seizure frequency, tonic ([1]; Patient 1, 2 weeks, CBD 5.0 mg/kg/day, baseline 22.4): 22.0
- Seizure frequency, tonic-clonic ([1]; Patient 1, 4 weeks, CBD 10.0 mg/kg/day, baseline 10.0): 21.4
- Seizure frequency, tonic ([1]; Patient 1, 4 weeks, CBD 10.0 mg/kg/day, baseline 22.4): 38.0
- Seizure frequency, tonic-clonic ([1]; Patient 1, 8 weeks, CBD 20.0 mg/kg/day, baseline 10.0): 14.0
- Seizure frequency, tonic ([1]; Patient 1, 8 weeks, CBD 20.0 mg/kg/day, baseline 22.4): 28.0
- Seizure frequency, tonic-clonic ([1]; Patient 1, 12 weeks, CBD 25.0 mg/kg/day, baseline 10.0): 12.0
- Seizure frequency, tonic ([1]; Patient 1, 12 weeks, CBD 25.0 mg/kg/day, baseline 22.4): 28.0
- Seizure frequency, tonic-clonic ([1]; Patient 1, 16 weeks, CBD 15.0 mg/kg/day, baseline 10.0): 22.0
- Seizure frequency, tonic ([1]; Patient 1, 16 weeks, CBD 15.0 mg/kg/day, baseline 22.4): 14.0
- Seizure frequency, tonic-clonic ([1]; Patient 1, 24 weeks, CBD 15.0 mg/kg/day, baseline 10.0): 12.0
- Seizure frequency, tonic ([1]; Patient 1, 24 weeks, CBD 15.0 mg/kg/day, baseline 22.4): 8.0
- Seizure frequency, tonic-clonic ([1]; Patient 1, 36 weeks, CBD 15.0 mg/kg/day, baseline 10.0): 20.0
- Seizure frequency, tonic ([1]; Patient 1, 36 weeks, CBD 15.0 mg/kg/day, baseline 22.4): 20.0
- Reduction in tonic seizures over the treatment period ([1]; Patient 1, treated for 36 weeks): 10.7%
- Seizure frequency, absence ([1]; Patient 2, 8 weeks, CBD 20.0 mg/kg/day, baseline 0): 1.0
- Seizure frequency, focal with impairment ([1]; Patient 2, 8 weeks, CBD 20.0 mg/kg/day): 0
- Seizure frequency, tonic ([1]; Patient 2, 8 weeks, CBD 20.0 mg/kg/day, baseline 5.6): 3.0
- Seizure frequency, absence ([1]; Patient 2, 12 weeks, CBD 20.0 mg/kg/day, baseline 0): 0
- Seizure frequency, focal with impairment ([1]; Patient 2, 12 weeks, CBD 20.0 mg/kg/day): 0
- Seizure frequency, tonic ([1]; Patient 2, 12 weeks, CBD 20.0 mg/kg/day, baseline 5.6): 1.6
- Seizure frequency, absence ([1]; Patient 2, 16 weeks, CBD 20.0 mg/kg/day, baseline 0): 0
- Seizure frequency, focal with impairment ([1]; Patient 2, 16 weeks, CBD 20.0 mg/kg/day): 0
- Seizure frequency, tonic ([1]; Patient 2, 16 weeks, CBD 20.0 mg/kg/day, baseline 5.6): 2.0
- Seizure frequency, absence ([1]; Patient 2, 24 weeks, CBD 20.0 mg/kg/day, baseline 0): 0.8
- Seizure frequency, focal with impairment ([1]; Patient 2, 24 weeks, CBD 20.0 mg/kg/day): 0
- Seizure frequency, tonic ([1]; Patient 2, 24 weeks, CBD 20.0 mg/kg/day, baseline 5.6): 0.4
- Seizure frequency, absence ([1]; Patient 2, 36 weeks, CBD 20.0 mg/kg/day, baseline 0): 0.4
- Seizure frequency, focal with impairment ([1]; Patient 2, 36 weeks, CBD 20.0 mg/kg/day): 0
- Seizure frequency, tonic ([1]; Patient 2, 36 weeks, CBD 20.0 mg/kg/day, baseline 5.6): 0.4
- Seizure frequency, absence ([1]; Patient 2, 48 weeks, CBD 20.0 mg/kg/day, baseline 0): 0
- Seizure frequency, focal with impairment ([1]; Patient 2, 48 weeks, CBD 20.0 mg/kg/day): 0
- Seizure frequency, tonic ([1]; Patient 2, 48 weeks, CBD 20.0 mg/kg/day, baseline 5.6): 0.8
- Seizure frequency, absence ([1]; Patient 2, 60 weeks, CBD 20.0 mg/kg/day, baseline 0): 0
- Seizure frequency, focal with impairment ([1]; Patient 2, 60 weeks, CBD 20.0 mg/kg/day): 0
- Seizure frequency, tonic ([1]; Patient 2, 60 weeks, CBD 20.0 mg/kg/day, baseline 5.6): 1.4
- Seizure frequency, absence ([1]; Patient 2, 72 weeks, CBD 21.3 mg/kg/day, baseline 0): 0.4
- Seizure frequency, focal with impairment ([1]; Patient 2, 72 weeks, CBD 21.3 mg/kg/day): 0
- Seizure frequency, tonic ([1]; Patient 2, 72 weeks, CBD 21.3 mg/kg/day, baseline 5.6): 0.4
- Seizure frequency, absence ([1]; Patient 2, 84 weeks, CBD 20.0 mg/kg/day, baseline 0): 0.4
- Seizure frequency, focal with impairment ([1]; Patient 2, 84 weeks, CBD 20.0 mg/kg/day): 0
- Seizure frequency, tonic ([1]; Patient 2, 84 weeks, CBD 20.0 mg/kg/day, baseline 5.6): 0.4
- Reduction in focal seizures with impairment over the treatment period [1, 4]: 100%
- Reduction in tonic seizures over the treatment period [1, 4]: 92.9%
- Seizure frequency, tonic-clonic ([1]; Patient 3, 4 weeks, CBD 25.0 mg/kg/day, baseline 4.0): 4.0
- Seizure frequency, absence ([1]; Patient 3, 4 weeks, CBD 25.0 mg/kg/day, baseline 8.0): 1.0
- Seizure frequency, tonic ([1]; Patient 3, 4 weeks, CBD 25.0 mg/kg/day, baseline 16.0): 2.0
- Seizure frequency, tonic-clonic ([1]; Patient 3, 12 weeks, CBD 25.0 mg/kg/day, baseline 4.0): 4.0
- Seizure frequency, absence ([1]; Patient 3, 12 weeks, CBD 25.0 mg/kg/day, baseline 8.0): 0
- Seizure frequency, tonic ([1]; Patient 3, 12 weeks, CBD 25.0 mg/kg/day, baseline 16.0): 1.0
- Seizure frequency, tonic-clonic ([1]; Patient 3, 16 weeks, CBD 25.0 mg/kg/day, baseline 4.0): 6.0
- Seizure frequency, absence ([1]; Patient 3, 16 weeks, CBD 25.0 mg/kg/day, baseline 8.0): 0
- Seizure frequency, tonic ([1]; Patient 3, 16 weeks, CBD 25.0 mg/kg/day, baseline 16.0): 4.0
- Seizure frequency, tonic-clonic ([1]; Patient 3, 24 weeks, CBD 25.0 mg/kg/day, baseline 4.0): 8.0
- Seizure frequency, absence ([1]; Patient 3, 24 weeks, CBD 25.0 mg/kg/day, baseline 8.0): 4.0
- Seizure frequency, tonic ([1]; Patient 3, 24 weeks, CBD 25.0 mg/kg/day, baseline 16.0): 0
- Seizure frequency, tonic-clonic ([1]; Patient 3, 36 weeks, CBD 25.0 mg/kg/day, baseline 4.0): 6.0
- Seizure frequency, absence ([1]; Patient 3, 36 weeks, CBD 25.0 mg/kg/day, baseline 8.0): 1.0
- Seizure frequency, tonic ([1]; Patient 3, 36 weeks, CBD 25.0 mg/kg/day, baseline 16.0): 4.0
- Reductions in seizures over the period of treatment, overall ([1]; all three patients, range over patients and seizure types): 10.7-100.0%
- Decrease of seizure frequency rates: tonic, tonic-clonic, absence and focal seizures with impairment ([1]; conclusion, all patients): 11-100.0%
- Seizure freedom, focal seizures with impairment ([1]; one patient (patient 2)): became seizure free of focal seizures with impairment
- Reduction in absence seizures over the treatment period [1, 5]: 87.5%
- Reduction in tonic seizures over the treatment period [1, 5]: 75%
- Reduction in tonic seizures, all three patients ([1]; range over the three patients): 11-93%
- Reduction of seizures associated with Rett syndrome ([1]; summary statement of the program): significantly reduce the number of seizures; also recorded: significant reduction in specific seizure types
- Effect on frequency of tonic, absence and focal seizures with impairment ([1]; three patients with Rett syndrome): effective in reducing the frequency
- Efficacy in randomized control trials [2]: showed efficacy

Structure (SMILES): C=C(C)[C@@H]1CCC(C)=C[C@H]1c1c(O)cc(CCC)cc1O [CBDV, cannabidivarin]
- Behavioural alterations [3]: rescue the behavioural alterations
